Measurements: patent US20240174690A1, “ANNULATED 2-AMINO-3-CYANO THIOPHENES AND DERIVATIVES FOR THE TREATMENT OF CANCER” (BOEHRINGER INGELHEIM INTERNATIONAL GMBH, priority 2021, published 2024)
pIC50: −log10 of the molar value.

Experiments:
GP2D cells = assay: GP2D proliferation assay (120 h) (colorectal cancer, G12D); type: cell-based
Experimental: GP2D Proliferation Assay (120 h) (Colorectal Cancer, G12D)
GP2D cells (ATCC No. CRL-5807) are dispensed into white 384-well plates, flat and white bottom (Perkin Elmer, 6007680) at a density of 500 cells per well in 40 μl DMEM (Sigma, D6429)+1×GlutaMAX (Gibco, 35050038)+10% FCS (fetal calf serum). […] Compounds (10 mM stock in DMSO) are added at logarithmic dose series using the HP Digital Dispenser D300 (Tecan), including DMSO controls and normalizing for added DMSO. For the TO time point measurement, untreated cells are analyzed at the time of compound addition. Plates are incubated for 120 h, and cell viability is measured using CellTiter-Glo luminescent cell viability reagent (Promega product code G7570). Viability (stated as percent of control) is defined as relative luminescence units RLU of each well divided by the RLU of cells in DMSO controls. IC50 values are determined from viability measurements by non-linear regression using a four parameter model.

KRAS (G13D)::SOS1 = KRAS (G13D)::SOS1 (Homo sapiens (Human), UniProt P01116, C118S/G13D); assay: KRAS::SOS1 AlphaScreen binding assay, KRAS G13D
Excerpt: (§1) This assay can be used to examine the potency with which compounds according to the invention binding to (mutated) KRAS inhibit the protein-protein interaction between SOS1 and (mutated) KRAS e.g., KRAS WT, KRAS G12C, KRAS G12D, KRAS G12V, KRAS G13D. […] Low IC50 values in this assay setting are indicative of strong inhibition of protein-protein interaction between SOS1 and KRAS:
(§2) These assays measure the inhibitory effect of compounds on KRAS mutant protein-protein interactions using the Alpha Screen technology by Perkin Elmer.
(§3) The following (mutant) enzyme forms of KRAS and interacting proteins are used in these assays at the given concentrations: • KRAS (G12D) 1-169, N-terminal 6His-tag, C-terminal avi-tag (Xtal BioStructures, Inc.); final assay concentration 10 nM and SOS1 564-1049, N-terminal 229 GST-tag, TEV cleavage site (Viva Biotech Ltd); final assay concentration 5 nM; • KRAS (G12C) 1-169, N-terminal 6His-tag for purification, cleaved off, C-terminal avi-tag, biotinylated, mutations: C51S, C80L, C118S (in house); final assay concentration 7.5 nM and SOS1 564-1049, N-terminal 229 GST-tag, TEV cleavage site (Viva Biotech Ltd); final assay concentration 5 nM; • KRAS (G12V) 1-169, N-terminal 6His-tag for purification, cleaved off, C-terminal avi-tag, biotinylated, TEV cleavage site, mutation: C118S, GDP loaded (in house); final assay concentration 10 nM and SOS1 564-1049, N-terminal 229 GST-tag, TEV cleavage site (Viva Biotech Ltd); final assay concentration 10 nM; • KRAS (G13D) 1-169, N-terminal 6His-tag for purification, cleaved off, C-terminal avi-tag, biotinylated, TEV cleavage site, mutation: C118S, GDP loaded (in house); final assay concentration 10 nM and SOS1 564-1049, N-terminal 229 GST-tag, TEV cleavage site (Viva Biotech Ltd); final assay concentration 10 nM; • KRAS (WT) 1-169, N-terminal 6His-tag for purification, cleaved off, C-terminal avi-tag, biotinylated, TEV cleavage site, mutation: C118S, GDP loaded (in house); final assay concentration 10 nM and SOS1 564-1049, N-terminal 229 GST-tag, TEV cleavage site (Viva Biotech Ltd); final assay concentration 10 nM.
(§4) Test compounds dissolved in DMSO are dispensed onto assay plates (Proxiplate 384 PLUS, white, PerkinElmer; 6008289) using an Access Labcyte Workstation with the Labcyte Echo 55×. For the chosen highest assay concentration of 100 μM, 150 nL of compound solution are transferred from a 10 mM DMSO compound stock solution. A series of eleven fivefold dilutions per compound are transferred to the assay plate, compound dilutions are tested in duplicates. DMSO are added as backfill to a total volume of 150 nL.
(§5) The assays run on a fully automated robotic system in a darkened room below 100 Lux. To 150 nl of compound dilution 10 μl of a mix including KRAS mutant protein, SOS1 (final assay concentrations see above) and GDP nucleotide (Sigma G7127; final assay concentration 10 μM) in assay buffer (1×PBS, 0.1% BSA, 0.05% Tween 20) are added into columns 1-24.
(§6) After 30 minutes incubation time 5 μl of Alpha Screen bead mix in assay buffer are added into columns 1-23. Bead mix consists of AlphaLISA Glutathione Acceptor Beads (PerkinElmer, Cat No AL109) and AlphaScreen Streptavidin Donor Beads (PerkinElmer Cat No 6760002) in assay buffer at a final assay concentration of 10 μg/ml each.
(§7) Plates are kept at room temperature in a darkened incubator. After an additional 60 minutes incubation time the signal is measured in a PerkinElmer Envision HTS Multilabel Reader using the AlphaScreen specs from PerkinElmer.
(§8) Each plate contains up to 16 wells of a negative control depending on the dilution procedure (platewise or serial) (DMSO instead of test compound; with KRAS mutant::SOS1 GDP mix and bead mix; column 23) and 16 wells of a positive control (DMSO instead of test compound; with KRAS mutant::SOS1 GDP mix w/o bead mix; column 24).
(§9) As internal control known inhibitors of KRAS mutant::SOS1 interaction can be measured on each compound plate. […]

KRAS (G12V)::SOS1 = KRAS (G12V)::SOS1 (Homo sapiens (Human), UniProt P01116, C118S/G12V); assay: KRAS::SOS1 AlphaScreen binding assay, KRAS G12V
Excerpt: as §1, §2, §3, §4, §5, §6, §7, §8, §9

A375 cells = assay: A375 CTG proliferation assay (120 h) (melanoma, wt, B-Raf mutant, negative control); type: cell-based; details: Homo sapiens, A-375, CTG 120 h
Experimental: A375 CTG Proliferation Assay (120 h) (Melanoma, Wt, B-Raf Mutant, Negative Control)
A375 cells (ATCC CRL-1619) are dispensed into 384-well plates, flat and clear bottom (Greiner, PNr. 781091) at a density of 300 cells per well in 60 μL DMEM (Sigma 06429)+10% Fetal Calf Serum (HyClone, PNr.: SH30084.03) and incubated at 37° C. in a CO2 incubator overnight. The next day, compounds (10 mM stock in DMSO) are added at logarithmic dose series using the HP Digital Dispenser D300 (Tecan), including DMSO controls. Plates are incubated for 120 h, and cell viability is measured using CellTiter-Glo luminescent cell viability reagent (Promega product code G7570). Viability (stated as percent of control) is defined as relative luminescence units RLU of each well divided by the RLU of cells in DMSO controls. IC50 values are determined from viability measurements by non-linear regression using a four-parameter model.

Chain of KRAS (G13D)::SOS1 (P01116 other isoform, or with tags, fused parts or gaps G13D/C118S): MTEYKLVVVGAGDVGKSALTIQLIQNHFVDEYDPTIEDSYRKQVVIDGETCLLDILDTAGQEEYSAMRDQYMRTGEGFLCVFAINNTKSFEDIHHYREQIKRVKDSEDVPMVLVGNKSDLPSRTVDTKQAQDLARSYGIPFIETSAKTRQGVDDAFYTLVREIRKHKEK
Chain of KRAS (G12V)::SOS1 (P01116 other isoform, or with tags, fused parts or gaps G12V/C118S): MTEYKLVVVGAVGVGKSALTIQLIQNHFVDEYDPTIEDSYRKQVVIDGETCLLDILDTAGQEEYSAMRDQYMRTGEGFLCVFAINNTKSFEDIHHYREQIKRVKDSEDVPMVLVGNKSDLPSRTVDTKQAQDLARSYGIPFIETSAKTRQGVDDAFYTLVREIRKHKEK

Row | Structure (SMILES) | pIC50 (GP2D cells) | pIC50 (KRAS (G12V)::SOS1) | other results
1 | C[C@H](Oc1cc(N2C[C@H](C)NC3(CC3)C2)nc(-c2onc3c2CCC[C@@]32CCCc3sc(N)c(C#N)c32)n1)[C@@H]1CCCN1C [I-8] | 8.22 | – | –
2 | C[C@H](Oc1cc(N2CCC[C@H](O)C2)nc(-c2noc3c2CCC[C@@]32CCCc3sc(N)c(C#N)c32)n1)[C@@H]1CCCN1C [II-57] | 6.79 | – | –
3 | C[C@H](Oc1cc(-n2cc3c(n2)CCNC3)nc(-c2noc3c2CCC[C@@]32CCCc3sc(N)c(C#N)c32)n1)[C@@H]1CCCN1C [II-53] | 7.54 | – | –
4 | C[C@H](Oc1cc(N2CCCC3(COC3)C2)nc(-c2noc3c2CCC[C@@]32CCCc3sc(N)c(C#N)c32)n1)[C@@H]1CCCN1C [II-72] | – | – | pIC50 (KRAS (G13D)::SOS1): 8.05
5 | C[C@H](Oc1cc(-c2cncnc2)nc(-c2noc3c2CCC[C@@]32CCCc3sc(N)c(C#N)c32)n1)[C@@H]1CCCN1C [II-82] | – | 8.05 | –
6 | C[C@H](Oc1cc(-n2cncc3ccnc2-3)nc(-c2noc3c2CCC[C@@]32CCCc3sc(N)c(C#N)c32)n1)[C@@H]1CCCN1C [II-105] | 6.33 | 8.70 | –
7 | C[C@H](Oc1cc(N2CCNC3(CC3)C2)nc(-c2noc3c2CCC[C@@]32CCCc3sc(N)c(C#N)c32)n1)[C@@H]1CCCN1C [II-54] | 9.00 | 8.05 | pIC50 (KRAS (G13D)::SOS1): 7.48
8 | C[C@H](Oc1cc(N2CCNC[C@]23CCOC3)nc(-c2noc3c2CCC[C@@]32CCCc3sc(N)c(C#N)c32)n1)[C@@H]1CCCN1C [II-50] | 8.52 | – | –
9 | C[C@H](Oc1cc(N2CCN(C)CC2)nc(-c2noc3c2CCC[C@@]32CCCc3sc(N)c(C#N)c32)n1)[C@@H]1CCCN1C [II-55] | 7.34 | 7.96 | pIC50 (KRAS (G13D)::SOS1): 7.33
10 | C[C@H](Oc1cc(-n2ccncc2=O)nc(-c2noc3c2CCC[C@@]32CCCc3sc(N)c(C#N)c32)n1)[C@@H]1CCCN1C [II-116] | – | – | pIC50 (KRAS (G13D)::SOS1): 7.77
11 | C[C@H](Oc1cc(-c2ccncc2)nc(-c2noc3c2CCC[C@@]32CCCc3sc(N)c(C#N)c32)n1)[C@@H]1CCCN1C [II-78] | – | 8.52 | –
12 | C[C@H](Oc1cc(-c2ccccn2)nc(-c2noc3c2CCC[C@@]32CCCc3sc(N)c(C#N)c32)n1)[C@@H]1CCCN1C [II-85] | – | 8.70 | –
13 | C[C@H](Oc1cc(-n2ccnc2)nc(-c2noc3c2CCC[C@@]32CCCc3sc(N)c(C#N)c32)n1)[C@@H]1CCCN1C [II-69] | 6.23 | – | –
14 | C[C@H](Oc1cc(-c2cnsc2)nc(-c2noc3c2CCC[C@@]32CCCc3sc(N)c(C#N)c32)n1)[C@@H]1CCCN1C [II-111] | 6.35 | – | –
15 | C[C@H](Oc1cc(-n2ccnc2)nc(-c2noc3c2CCC[C@@]32CCCc3sc(N)c(C#N)c32)n1)[C@@H]1C[C@@H](F)CN1C [II-120] | – | 8.30 | –
16 | C[C@H](Oc1cc(N2CCNC3(CC3)C2)nc(-c2onc3c2CCC[C@@]32CCCc3sc(N)c(C#N)c32)n1)[C@@H]1CCCN1C [I-5] | 9.00 | – | –
17 | C[C@H](Oc1cc(-c2ccn(C)n2)nc(-c2noc3c2CCC[C@@]32CCCc3sc(N)c(C#N)c32)n1)[C@@H]1CCCN1C [II-96] | 6.09 | 8.70 | –
18 | C[C@H](Oc1cc(N2CC[C@H](N(C)C)C2)nc(-c2noc3c2CCC[C@@]32CCCc3sc(N)c(C#N)c32)n1)[C@@H]1CCCN1C [II-49] | 8.22 | 7.27 | pIC50 (KRAS (G13D)::SOS1): 6.76
19 | C[C@H](Oc1cc(-c2ccn(C[C@@H](C)O)n2)nc(-c2noc3c2CCC[C@@]32CCCc3sc(N)c(C#N)c32)n1)[C@@H]1CCCN1C [II-117] | 6.56 | – | –
20 | C[C@H](Oc1cc(-n2ccc(Br)n2)nc(-c2noc3c2CCC[C@@]32CCCc3sc(N)c(C#N)c32)n1)[C@@H]1CCCN1C [II-110] | – | 8.52 | –
21 | C[C@H](Oc1cc(N2C[C@H](C)N[C@@H](C)C2)nc(-c2noc3c2CCC[C@@]32CCCc3sc(N)c(C#N)c32)n1)[C@@H]1CCCN1C [II-56] | 7.89 | – | –
22 | CNC(=O)c1cn(-c2cc(O[C@@H](C)[C@@H]3CCCN3C)nc(-c3noc4c3CCC[C@@]43CCCc4sc(N)c(C#N)c43)n2)nn1 [II-122] | – | – | pIC50 (A375 cells): 6.12
23 | C[C@H](Oc1cc(-c2cnn(C)n2)nc(-c2noc3c2CCC[C@@]32CCCc3sc(N)c(C#N)c32)n1)[C@@H]1CCCN1C [II-86] | 6.08 | – | –
24 | C[C@H](O)Cn1ccc(-c2cc(O[C@@H](C)[C@@H]3CCCN3C)nc(-c3noc4c3CCC[C@@]43CCCc4sc(N)c(C#N)c43)n2)n1 [II-112] | 6.61 | – | –
25 | C[C@H](Oc1cc(-c2ccc(N)nc2)nc(-c2noc3c2CCC[C@@]32CCCc3sc(N)c(C#N)c32)n1)[C@@H]1CCCN1C [II-101] | – | 8.70 | –
26 | C[C@H](Oc1cc(-c2ccn3ncnc3c2)nc(-c2noc3c2CCC[C@@]32CCCc3sc(N)c(C#N)c32)n1)[C@@H]1CCCN1C [II-104] | 6.29 | – | –
27 | C[C@H](Oc1cc(-n2ccc(-c3ccccn3)n2)nc(-c2noc3c2CCC[C@@]32CCCc3sc(N)c(C#N)c32)n1)[C@@H]1CCCN1C [II-119] | – | 8.70 | –
28 | C[C@H](Oc1cc(-n2cncn2)nc(-c2noc3c2CCC[C@@]32CCCc3sc(N)c(C#N)c32)n1)[C@@H]1CCCN1C [II-70] | – | – | pIC50 (KRAS (G13D)::SOS1): 7.72
29 | C[C@H](Oc1cc(N2CCc3cccnc32)nc(-c2noc3c2CCC[C@@]32CCCc3sc(N)c(C#N)c32)n1)[C@@H]1CCCN1C [II-90] | – | 8.10 | –
30 | C[C@H](Oc1cc(C2CCOCC2)nc(-c2noc3c2CCC[C@@]32CCCc3sc(N)c(C#N)c32)n1)[C@@H]1CCCN1C [II-76] | – | – | pIC50 (KRAS (G13D)::SOS1): 7.39
